Several values for one entry are separate records, joined by “and”; a condition that tells them apart may be missing. Equal values may be shown once.
Key:
[1] = Solid-liquid equilibrium temperature; conditions: Crystal, Speed of sound
[2] = Liquid, Linear variable-path acoustic interferometer

CCCCn1cc[n+](C)c1.F[P-](F)(F)(F)(F)F [1-butyl-3-methylimidazolium hexafluorophosphate]
[1]
Conditions | Solid-liquid equilibrium temperature [K]
100 kPa | 285
34000 kPa | 291.15
40200 kPa | 293.15
42500 kPa | 294.16
55000 kPa | 296.15
88900 kPa | 303.15

[2]
Conditions | speed of sound
283.16 K, 100 kPa | 1455.5 m/s and 1457.6 m/s
283.16 K, 5088 kPa | 1468.6 m/s
283.16 K, 5131 kPa | 1470.6 m/s
283.16 K, 10263 kPa | 1481.8 m/s
283.16 K, 20249 kPa | 1506.7 m/s
283.16 K, 29954 kPa | 1529.9 m/s
283.16 K, 29995 kPa | 1532.5 m/s
283.16 K, 44961 kPa | 1564.2 m/s
283.16 K, 59682 kPa | 1596.7 m/s
283.16 K, 59829 kPa | 1599.6 m/s
283.16 K, 79904 kPa | 1638.6 m/s
283.16 K, 99077 kPa | 1677.1 m/s
283.16 K, 124179 kPa | 1724.4 m/s
283.16 K, 150925 kPa | 1772.6 m/s
291.15 K, 100 kPa | 1440.2 m/s
291.15 K, 5069 kPa | 1453.3 m/s
291.15 K, 10166 kPa | 1466.6 m/s
291.15 K, 20400 kPa | 1492.4 m/s
291.15 K, 30019 kPa | 1515.7 m/s
291.15 K, 44920 kPa | 1550 m/s
291.15 K, 59912 kPa | 1583.2 m/s
293.16 K, 100 kPa | 1432.8 m/s and 1431.6 m/s
293.16 K, 5157 kPa | 1446.5 m/s
293.16 K, 10195 kPa | 1459 m/s
293.16 K, 20215 kPa | 1484.2 m/s
293.16 K, 29959 kPa | 1507.9 m/s
293.16 K, 44757 kPa | 1542.2 m/s
293.16 K, 59732 kPa | 1574.7 m/s
293.16 K, 78627 kPa | 1613.8 m/s
293.16 K, 99149 kPa | 1654.5 m/s
294.16 K, 5125 kPa | 1444.5 m/s
294.16 K, 10105 kPa | 1457.2 m/s
294.16 K, 20357 kPa | 1483.2 m/s
294.16 K, 29785 kPa | 1506 m/s
303.16 K, 100 kPa | 1410.3 m/s
303.16 K, 5078 kPa | 1423.5 m/s
303.16 K, 10204 kPa | 1437.1 m/s
303.16 K, 20225 kPa | 1462.8 m/s
303.16 K, 44714 kPa | 1521.3 m/s
303.16 K, 59773 kPa | 1554.6 m/s
303.16 K, 98921 kPa | 1634.4 m/s
313.16 K, 100 kPa | 1389.5 m/s
313.16 K, 5010 kPa | 1402.8 m/s
313.16 K, 10043 kPa | 1416.4 m/s
313.16 K, 20319 kPa | 1443.3 m/s
313.16 K, 41702 kPa | 1495.1 m/s
313.16 K, 44866 kPa | 1502.9 m/s
313.16 K, 59754 kPa | 1536.3 m/s
313.16 K, 79721 kPa | 1578.6 m/s
313.16 K, 99097 kPa | 1617.4 m/s
313.16 K, 125283 kPa | 1662.2 m/s
323.25 K, 100 kPa | 1368 m/s
323.25 K, 5061 kPa | 1381.8 m/s
323.25 K, 9942 kPa | 1395.4 m/s
323.25 K, 20234 kPa | 1422.7 m/s
323.25 K, 29721 kPa | 1446.8 m/s
323.25 K, 44935 kPa | 1482.2 m/s
323.25 K, 59711 kPa | 1516 m/s
323.25 K, 79553 kPa | 1557.9 m/s
323.25 K, 98901 kPa | 1592.5 m/s
